# Results taken from patent US9763957B2, “Autotaxin inhibitors” (Novartis AG, priority 2013, dated 2017).
# Biological target: Recombinant human ATX (Homo sapiens (Human), UniProt Q13822)
# Test: ATX inhibition assay (choline release, Amplex Red fluorescence)
# Type: biochemical
# Conditions: ATX 10 nM, LPC 18:1 10 μM, 37° C., 20 min pre-incubation; mean of n≧2
# Procedure, shortened: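 Activity was taken from the slope of resorufin fluorescence (530/590 nm, read every 2 min for 40 min at 37 °C) produced by choline liberated from 10 μM oleoyl LPC.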
row,SMILES,IC50
1,"Cc1nnn(Cc2cc(C(F)(F)F)ccc2/C=C/C(=O)N2CCC(C(=O)O)CC2)n1 [Example 51, (E)-1-(3-(2-((5-Methyl-2H-tetrazol-2-yl)methyl)-4-(trifluoromethyl)phenyl)acryloyl)piperidine-4-carboxylic acid]",77 nM
2,"Cc1nnn(Cc2cc(C(F)F)ccc2/C=C/C(=O)N2CCC(c3nnc(C)o3)CC2)n1 [Example 52, (E)-3-(4-(Difluoromethyl)-2-((5-methyl-2H-tetrazol-2-yl)methy)phenyl)-1-(4-(5-methyl-1,3,4-oxadiazol-2-yl)piperidin-1-yl)prop-2-en-1-one]",17 nM
3,"Cc1nnn(Cc2cc(C(F)(F)F)ccc2/C=C/C(=O)N2CCN(Cc3cnn(C)c3)CC2)n1 [Example 53, (E)-1-(4-((1-Methyl-1H-pyrazol-4-yl)methyl)piperazin-1-yl)-3-(2-((5-methyl-2H-tetrazol-2-yl)methyl)-4-(trifluoromethyl)phenyl)prop-2-en-1-one]",2 nM
4,"Cc1nnn(Cc2cc(OC(F)(F)F)ccc2/C=C/C(=O)N2CCC(c3nnc(C)o3)CC2)n1 [Example 54, (E)-1-(4-(5-Methyl-1,3,4-oxadiazol-2-yl)piperidin-1-yl)-3-(2-((5-methyl-2H-tetrazol-2-yl)methyl)-4-(trifluoromethoxy)phenyl)prop-2-en-1-one]",8.9 nM
5,"Cc1nnn(Cc2cc(C(F)F)ccc2/C=C/C(=O)N2CCC(c3noc(C)n3)CC2)n1 [Example 55, (E)-3-(4-(Difluoromethyl)-2-((5-methyl-2H-tetrazol-2-yl)methy)phenyl)-1-(4-(5-methyl-1,2,4-oxadiazol-3-yl)piperidin-1-yl)prop-2-en-1-one]",8 nM
6,"Cc1nnn(Cc2cc(OC(F)(F)F)ccc2/C=C/C(=O)N2CCC(Cc3nnc(C)o3)CC2)n1 [Example 56, (E)-1-(4-((5-Methyl-1,3,4-oxadiazol-2-yl)methyl)piperidin-1-yl)-3-(2-((5-methyl-2H-tetrazol-2-yl)methyl)-4-(trifluoromethoxy)phenyl)prop-2-en-1-one]",12 nM
7,"Cc1nnn(Cc2cc(C(F)(F)F)ccc2/C=C/C(=O)N2CCC(c3nnc(C)o3)CC2)n1 [Example 57, (E)-1-(4-(5-Methyl-1,3,4-oxadiazol-2-yl)piperidin-1-yl)-3-(2-((5-methyl-2H-tetrazol-2-yl)methyl)-4-(trifluoromethyl)phenyl)prop-2-en-1-one]",8 nM
8,"Cc1nnn(Cc2cc(OC(F)F)ccc2/C=C/C(=O)N2CCC(Cc3nnc(C)o3)CC2)n1 [Example 58, (E)-3-(4-(Difluoromethoxy)-2-((5-methyl-2H-tetrazol-2-yl)methyl)phenyl)-1-(4-((5-methyl-1,3,4-oxadiazol-2-yl)methyl)piperidin-1-yl)prop-2-en-1-one]",53 nM
9,"Cc1nnn(Cc2cc(C(F)F)ccc2/C=C/C(=O)N2CCC(Cc3nnc(C)o3)CC2)n1 [Example 59, (E)-3-(4-(Difluoromethyl)-2-((5-methyl-2H-tetrazol-2-yl)methyl)phenyl)-1-(4-((5-methyl-1,3,4-oxadiazol-2-yl)methyl)piperidin-1-yl)prop-2-en-1-one]",21 nM
10,"Cc1noc(CC2CCN(C(=O)/C=C/c3ccc(C(F)(F)F)cc3Cn3nnc(C)n3)CC2)n1 [Example 60, (E)-1-(4-((3-Methyl-1,2,4-oxadiazol-5-yl)methyl)piperidin-1-yl)-3-(2-((5-methyl-2H-tetrazol-2-yl)methyl)-4-(trifluoromethyl)phenyl)prop-2-en-1-one]",8.8 nM
11,"Cc1nnn(Cc2cc(Cl)ccc2/C=C/C(=O)N2CC3CCC2CN3Cc2coc(C)n2)n1 (centres unmarked) [Example 61, (E)-3-(4-Chloro-2-((5-methyl-2H-tetrazol-2-yl)methyl)phenyl)-1-(5-((2-methyloxazol-4-yl)methyl)-2,5-diazabicyclo[2.2.2]octan-2-yl)prop-2-en-1-one]",45 nM
12,"Cc1nnn(Cc2cc(Cl)ccc2/C=C/C(=O)N2CCN(Cc3coc(C)n3)C[C@H]2C)n1 [Example 62, (R,E)-3-(4-Chloro-2-((5-methyl-2H-tetrazol-2-yl)methyl)phenyl)-1-(2-methyl-4-((2-methyloxazol-4-yl)methyl)piperazin-1-yl)prop-2-en-1-one]",4.2 nM
13,"Cc1csc(C(O)C2CCN(C(=O)/C=C/c3ccc(Cl)cc3Cn3nnc(C)n3)CC2)n1 (centres unmarked) [Example 63, (E)-3-(4-Chloro-2-((5-methyl-2H-tetrazol-2-yl)methyl)phenyl)-1-(4-(hydroxy(4-methylthiazol-2-yl)methyl)piperidin-1-yl)prop-2-en-1-one]",5.5 nM
14,"Cc1nnn(Cc2cc(Cl)ccc2/C=C/C(=O)N2CCC(c3ccc(F)cc3)CC2)n1 [Example 64, (E)-3-(4-Chloro-2-((5-methyl-2H-tetrazol-2-yl)methyl)phenyl)-1-(4-(4-fluorophenyl)piperidin-1-yl)prop-2-en-1-one]",31 nM
15,"Cc1nnn(Cc2cc(C(F)(F)F)ccc2/C=C/C(=O)N2CCN(CC(=O)OC(C)(C)C)C[C@H]2C)n1 [Example 65, (R,E)-tert-Butyl 2-(3-methyl-4-(3-(2-((5-methyl-2H-tetrazol-2-yl)methyl)-4-(trifluoromethyl)phenyl)acryloyl)piperazin-1-yl)acetate]",5.5 nM
16,"COC(=O)C1CCN(C(=O)/C=C/c2ccc(C(F)(F)F)cc2Cn2nnc(C)n2)CC1 [Example 67, (E)-Methyl 1-(3-(2-((5-methyl-2H-tetrazol-2-yl)methyl)-4-(trifluoromethyl)phenyl)acryloyl)piperidine-4-carboxylate]",8.8 nM
17,"Cc1nnn(Cc2cc(C(F)(F)F)ccc2/C=C/C(=O)N2CCN(C(=O)OC(C)(C)C)CC2)n1 [Example 68, (E)-tert-Butyl-4-(3-(2-((5-methyl-2H-tetrazol-2-yl)methyl)-4-(trifluoromethyl)phenyl)acryloyl)piperazine-1-carboxylate]",4.5 nM
18,"Cc1nnn(Cc2cc(C(F)(F)F)ccc2/C=C/C(=O)N2CCN(Cc3coc(C)n3)C[C@H]2C)n1 [Example 69, (R,E)-3-(2-((5-Methyl-2H-tetrazol-2-yl)methyl)-4-(trifluoromethyl)phenyl)-1-(2-methyl-4-((2-methyloxazol-4-yl)methyl)piperazin-1-yl)prop-2-en-1-one]",2 nM
19,"Cc1nnn(Cc2cc(C(F)(F)F)ccc2/C=C/C(=O)N2CCN(Cc3cnn(C)c3)C[C@H]2C)n1 [Example 70, (R,E)-3-(2-((5-Methyl-2H-tetrazol-2-yl)methyl)-4-(trifluoromethyl)phenyl)-1-(2-methyl-4-((1-methyl-1H-pyrazol-4-yl)methyl)piperazin-1-yl)prop-2-en-1-one]",4.2 nM
20,"Cc1nnn(Cc2cc(C(F)(F)F)ccc2/C=C/C(=O)N2CCC(Cc3noc(C)n3)CC2)n1 [Example 71, (E)-1-(4-((5-Methyl-1,2,4-oxadiazol-3-yl)methyl)piperidin-1-yl)-3-(2-((5-methyl-2H-tetrazol-2-yl)methyl)-4-(trifluoromethyl)phenyl)prop-2-en-1-one]",6 nM
21,"Cc1ccc(/C=C/C(=O)N2CCC(Cc3nnc(C)o3)CC2)c(Cn2nnc(C)n2)c1 [Example 72, (E)-1-(4-((5-Methyl-1,3,4-oxadiazol-2-yl)methyl)piperidin-1-yl)-3-(4-methyl-2-((5-methyl-2H-tetrazol-2-yl)methyl)phenyl)prop-2-en-1-one]",290 nM
22,"Cc1nnn(Cc2cc(Cl)ccc2/C=C/C(=O)N2CCN(Cc3cnn(C)c3)C[C@H]2C)n1 [Example 73, (R,E)-3-(4-Chloro-2-((5-methyl-2H-tetrazol-2-yl)methyl)phenyl)-1-(2-methyl-4-((1-methyl-1 H-pyrazol-4-yl)methyl)piperazin-1-yl)prop-2-en-1-one]",4.2 nM
23,"Cc1nnn(Cc2cc(C(F)(F)F)ccc2/C=C/C(=O)N2CCN(Cc3coc(C)n3)CC2)n1 [Example 74, (E)-3-(2-((5-Methyl-2H-tetrazol-2-yl)methyl)-4-(trifluoromethyl)phenyl)-1-(4-((2-methyloxazol-4-yl)methyl)piperazin-1-yl)prop-2-en-1-one]",5.5 nM
24,"Cc1nnc(CC2CCN(C(=O)/C=C/c3ccc(Cl)cc3Cn3nccn3)CC2)o1 [Example 75, (E)-3-(2-((2H-1,2,3-Triazol-2-yl)methyl)-4-chlorophenyl)-1-(4-((5-methyl-1,3,4-oxadiazol-2-yl)methyl)piperidin-1-yl)prop-2-en-1-one]",1440 nM
25,"Cc1noc(Cc2cc(Cl)ccc2/C=C/C(=O)N2CCN(Cc3coc(C)n3)CC2)n1 [Example 76, (E)-3-(4-Chloro-2-((3-methyl-1,2,4-oxadiazol-5-yl)methyl)phenyl)-1-(4-((2-methyloxazol-4-yl)methyl)piperazin-1-yl)prop-2-en-1-one]",73 nM
26,"Cc1nnc(CC2CCN(C(=O)/C=C/c3ccc(Cl)cc3Cn3ncnn3)CC2)o1 [Example 77, (E)-3-(2-((2H-Tetrazol-2-yl)methyl)-4-chlorophenyl)-1-(4-((5-methyl-1,3,4-oxadiazol-2-yl)methyl)piperidin-1-yl)prop-2-en-1-one]",1990 nM
27,"Cc1nnn(Cc2c(F)cccc2/C=C/C(=O)N2CCC(Cc3nnc(C)o3)CC2)n1 [Example 78, (E)-3-(3-Fluoro-2-((5-methyl-2H-tetrazol-2-yl)methyl)phenyl)-1-(4-((5-methyl-1,3,4-oxadiazol-2-yl)methyl)piperidin-1-yl)prop-2-en-1-one]",1460 nM
28,"Cc1nnn(Cc2ccc(F)cc2/C=C/C(=O)N2CCC(Cc3nnc(C)o3)CC2)n1 [Example 79, (E)-3-(5-Fluoro-2-((5-methyl-2H-tetrazol-2-yl)methyl)phenyl)-1-(4-((5-methyl-1,3,4-oxadiazol-2-yl)methyl)piperidin-1-yl)prop-2-en-1-one]",3140 nM
29,"Cc1cnn(Cc2cc(Cl)ccc2/C=C/C(=O)N2CCC(Cc3nnc(C)o3)CC2)n1 [Example 80, (E)-3-(4-Chloro-2-((4-methyl-2H-1,2,3-triazol-2-yl)methyl)phenyl)-1-(4-((5-methyl-1,3,4-oxadiazol-2-yl)methyl)piperidin-1-yl)prop-2-en-1-one]",454 nM
